# Laboratory results from US6320024A, “Method for design of substances that enhance memory and improve the quality of life” (priority 1999, dated 2001).
# Ends that are not written are not given here. Peptide text beside a SMILES is read from it.
# Experiments:
# CD-1 male mice [1] = assay: Amnestic effect on retention of footshock active avoidance training (FAAT) in T-maze, well-trained mice, post-training ICV administration; assay type: in vivo; conditions: for amnestic effect on retention of FAAT: well-trained mice, post-training ICV, 6.14 nmol of peptide per mouse except dose-response curves, retention tested one week later; for molar amnestic efficacy / potency compared with another peptide: dose-response curves or FIG. 19
# Protocol: (§1) After 1 week in the laboratory, CD-1 male mice obtained from Charles River Breeding Laboratories were caged individually 24-28 hours prior to training and remained singly housed until retention was tested one week later. Animal rooms were on a 12 hour light/dark cycle with lights going on at the hour of 0600. Median body weight was 35 g, with a range of 33-38 g. Mice were assigned randomly to groups of 15 in the experiments reported in FIGS. 1-18 and groups of 10 for the dose-response curves (FIGS. 19 and 20) and were trained and tested between the hours of 0700 and 1500.
# (§2) With the exception of Val Phe and Phe Val from Sigma, all peptides used in these studies were synthesized and analyzed to establish purity by standard methods at the Beckman Research Institute. Peptides were dissolved in: (1) saline; (2) 8% vol/vol dimethyl sulfoxide: (3) glacial acetic acid neutralized with […]; or (4) NaOH neutralized with HCl.
# With exception of dose-response curves, the experiments reported below tested whether or not there was an amnestic: effect at 6.14 nmol of peptide per mouse.
# The T-maze used for footshock active avoidance training (FAAT) consisted of a black plastic alley (46 cm long) with a start box at one end and two goal boxes (17.5 cm long) at the other. The start box was separated from the alley by a plastic guillotine door that prevented movement down the alley until training began. The alley was 12.5 cm deep and 9.8 cm wide. An electrifiable stainless steel rod floor ran throughout the maze.
# Mice were not permitted to explore the maze before training. A block of training trials began when a mouse was placed in the start box. The guillotine door was raised and a muffled doorbell-type buzzer sounded simultaneously; footshock was 5 seconds later through a scrambled grid floor shocker (Colbourn Instruments, Model E13-08). The goal box first entered during the first set of trials was designated as "incorrect", and footshock was continued until the mouse entered the other goal box, which in all subsequent trials was designated "correct" for the particular mouse. At the end of each group of trials, the mouse was removed to its home cage.
# As training proceeded, a mouse made one of two types of responses. A response latency longer than 5 seconds was classed as an escape from the footshock. A response latency less than or equal to 5 seconds was considered an avoidance, since the mouse avoided receiving a footshock. Two exclusion criteria were applied to reduce learning variability among mice, as follows. On the first training trials, mice with escape latencies greater than 20 seconds were discarded. Mice not having at least one errorless escape latency between 1.5 and 3.5 seconds on training trials 3 or 4 were excluded. […] Mice received five such training trials. One week after training and post-trial administration of vehicle alone or vehicle containing test substance, T-maze training was resumed until each mouse made five avoidance responses in six consecutive training trials (trials to criterion). The recall score was taken to be the percentage of tested mice remembering original training.
# In these instances, training was performed under conditions that tend to maximize learning (sound intensity, 65 decibels; footshock current, 0.35 mA; intertrial interval, 45 seconds).
# CD-1 male mice [2] = assay: Memory-enhancing effect on retention of FAAT in T-maze, weakly trained mice (poor retention in vehicle controls), post-training ICV administration; assay type: in vivo
# Protocol: as §1
# as §2, with “HCl. […] Analysis of variance showing insignificant differences among the latter, the value for the most frequently employed (No. 2 above) was used for comparison with groups receiving test peptides.” for “HCl.”
# The T-maze used for footshock active avoidance training (FAAT) consisted of a black plastic alley (46 cm long) with a start box at one end and two goal boxes (17.5 cm long) at the other. […]
# CD-1 male mice [3] = conditions: cited from earlier work; for amnestic effect on retention of FAAT (literature): post-training ICV in mice, references 1 and 12
# [4] = test system: hippocampal neurons in culture; conditions: reference 17; cited from earlier work
compound,measurement,setting,value
NC(=O)CC[C@H](N)C(=O)N[C@@H](Cc1ccccc1)C(=O)N[C@@H](Cc1ccccc1)C(=O)NCC(=O)O [Gln Phe Phe Gly] (H-QFFG-OH),amnestic effect on retention of FAAT,CD-1 male mice [1],amnestic
same,memory-enhancing potency compared with other peptides,CD-1 male mice [2]; poor retention in vehicle controls,by far the most potent
CC(C)[C@H](N)C(=O)N[C@@H](Cc1ccccc1)C(=O)N[C@@H](Cc1ccccc1)C(=O)O [Val Phe Phe] (H-Val-Phe-Phe-OH),molar amnestic efficacy / potency compared with another peptide,CD-1 male mice [1],not significantly different from that of the β-A4 homologue
same,amnestic effect on retention of FAAT,CD-1 male mice [1],amnestic
same,memory-enhancing effect,"CD-1 male mice [2]; weakly trained animals, ICV",memory enhancer
CC(C)[C@H](N)C(=O)N[C@@H](Cc1ccccc1)C(=O)N[C@H](C(=O)O)[C@@H](C)O [Val Phe Thr] (H-Val-Phe-Thr-OH),amnestic effect on retention of FAAT,CD-1 male mice [1],amnestic
His Ser Asp Ala Val Phe Thr Asp Asn Tyr Thr Arg Leu Lys Gln Met Ala Val Lys Lys Tyr Leu Asn Ser Ile Leu Asn-NH2 (HSDAVFTDNYTRLKQMAVKKYLNSILN-NH2) [VIP],amnestic effect on retention of FAAT (literature),CD-1 male mice [3],amnestic
KLVFFAE [Lys Leu Val Phe Phe Ala Glu],amnestic effect on retention of FAAT,CD-1 male mice [1],not amnestic
Pro Arg Pro Gly Pro Gln Gln Phe Phe Gly Leu Met-NH2 (PRPGPQQFFGLM-NH2) [Substance Pro],effect on trophic and toxic effects of β-A4,[4],counteract trophic and toxic effects of β-A4
VFFAE [Val Phe Phe Ala Glu],molar amnestic efficacy / potency compared with another peptide,CD-1 male mice [1],lesser potency
same,amnestic effect on retention of FAAT,CD-1 male mice [1],amnestic
VFFAEDVGSNK [β-(18-28)],amnestic effect on retention of FAAT (literature),CD-1 male mice [3],amnestic
"β-(1-18): β-A4 fragment of reference 1, probably misprint of β-(1-28)",amnestic activity at lower dose (literature),"CD-1 male mice [3]; 1.5 nmol per mouse, reference 1",active
